pIC50: −log10 of the molar value.
What was measured:
[1] = test system: VCaP cells; experiment: Growth of VCaP cells; type: cell-based; details: 20 μM daily
[2] = test system: Wnt/β-catenin STF-LUC reporter in LNCaP; experiment: β-catenin/Wnt-responsive STF16-LUC reporter with S37A β-catenin in LNCaP cells; type: cell-based
Procedure: (§1) LNCaP or LNCaP-abl (ABL) cells were cotransfected with 0.1 μg β-galactosidase and 0.2 μg S37A stabilized β-catenin together with the indicated luciferase reporter constructs; STF16-LUC (β-catenin reporter) and LB1-LUC (AR reporter). […] Luciferase activity was normalized to β-galactosidase expression.
(§2) To determine the IC50 for the β-catenin/Wnt-responsive reporter, cells were cotransfected with β-galactosidase (LacZ) and a constitutively active S37A stabilized β-catenin mutant construct together with the reporter construct, STF16-LUC. To determine the IC50 for the AR-responsive construct, cells were cotransfected with LacZ and the AR responsive reporter construct, ARE-LUC. […] B) AR overexpression circumvents C3 repression of AR-responsive transcription. LNCaP cells were cotransfected with 0.1 μg LacZ and 0.2 μg of the AR responsive reporter construct, ARE-LUC, together with 0, 0.05, 0.1 and 0.2 μg of an AR expression vector. […] Luciferase activity was normalized to LacZ expression.
(§3) 108(15): 5954-63], it had not been determined in prostate cancer cells. […] 69(8): 3332-8].

[3] = test system: HEK 293 cells; experiment: PARP cleavage immunoblot, HEK293; type: cell-based; details: HEK 293, 20 μM, 72 hr
[4] = test system: LNCaP-abl cells; experiment: PARP cleavage immunoblot as marker of apoptosis, LNCaP-abl; type: cell-based; details: 20 μM, 72 hr
[5] = test system: ARE-LUC androgen responsive reporter gene in LNCaP; experiment: AR responsive luciferase reporter (ARE-LUC / LB1-LUC) in LNCaP cells; type: cell-based
Procedure: as §1, §2, §3

[6] = test system: LNCaP-abl tumors; experiment: LNCaP-abl xenograft model of castration-resistant prostate cancer in nude mice; type: in vivo; details: 100 mg/kg daily, intraperitoneal then intratumor injection, FIG. 23
Procedure: Tumor volumes were measured twice weekly.
The cell types for xenograft studies include LNCaP, LNCaP-abl and VCaP, which have all been previously utilized for xenograft studies and are able to recur following castration [Korenchuk et al., In Vivo, 2001. 15(2): 163-8; Culig et al., Br J Cancer, 1999. 81(2): 242-51; Graff et al., J Biol Chem, 2000. 275(32): 24500-5]. VCaP cells harbor a wild type androgen receptor and are androgen-dependent for growth [van Bokhoven et al., Prostate, 2003. 57(3): 205-25]. Other characteristics of cells to be considered in such experiments include the mutational status of AR, pTEN, p53, ETS fusion, and the year derived. Following determination of the MTD, 5×10^6 cells are mixed with an equal volume of Matrigel (BD Biosciences) and injected subcutaneously into the right and left flank of a BALB/c nu/nu outbred mouse. […] To assay growth, tumors are measured with Vernier calipers, and the total volume determined by using the formula 0.52×width×height×depth. Tumor growth is measured twice weekly and animals are also weighed twice weekly to assess toxicity.
Methods: Rapidly cycling LNCaP-abl cells (15×10^6) were mixed with an equal volume of Matrigel and injected subcutaneously into the flank region of nude male mice. […] To assess growth, tumors were measured twice weekly with Vernier calipers, and the total volume was determined.

[7] = test system: AR, PSA, c-myc, CDK1, UBE2C protein in LNCaP cells; experiment: Western blot time course of AR and β-catenin target proteins in LNCaP cells; type: cell-based
Procedure: ABL cells were treated similarly, but cultured in 5% charcoal-stripped phenol-red free RPMI. The mRNA was extracted at each time point and relative levels of indicated genes were analyzed by Q-PCR and normalized to RPL19. B) Protein from LNCaP cells was analyzed at each time point and immunoblotted with indicated antibodies.
Expression of tubulin (included as an internal loading control) and β-catenin were unaffected.

[8] = test system: LNCaP-abl cells; experiment: Proliferation assay (neutral red uptake), LNCaP-abl; type: cell-based; details: 20 μM daily
Procedure: A) Cells were cultured in phenol-red free RPMI with either 5% charcoal-stripped FBS supplemented with 0.1 nM R1881 (LNCaP) or 10% charcoal-stripped FBS alone (LNCaP-abl). […] Neutral red uptake assay was performed at the end of treatment to estimate the number of viable cells. […] Fixed cells were stained with Propidium Iodide and analyzed for DNA content using flow cytometry. The first and the second red peak and the dashed area represent G0/G1, M and S-phase cell population, respectively.

[9] = test system: ARE-LUC androgen responsive reporter gene in LNCaP-abl; experiment: AR responsive luciferase reporter (ARE-LUC / LB1-LUC) in LNCaP-abl cells; type: cell-based
Procedure: as §1, §2, §3

CCc1ccc(-c2nc(CSCC(=O)NCCc3ccccc3)c(C)o2)cc1 [Compound C3]
cell growth [1]: completely abolished
pIC50 [2]: 6.85
Wnt reporter gene activity (STF16-LUC) ([2]; 20 uM, 24 hr): inhibits
apoptosis (PARP cleavage) in 293 cells [3]: does not induce apoptosis
PARP cleavage (apoptosis marker) [4]: Increased levels of PARP cleavage
pIC50 ([5]; LNCaP (first of two values)): 5.84
AR reporter gene activity (LB1-LUC) ([5]; LNCaP, 20 uM, 24 hr): inhibits
tumor volume [6]: reduced tumor volume to a statistically significant degree
expression of tubulin and β-catenin protein [7]: unaffected
levels of AR, PSA, c-myc, CDK1 and UBE2C protein ([7]; especially at 48-hour time point): diminished levels
cell growth [8]: completely abolished
pIC50 ([9]; LNCaP-abl (second of two values)): 5.79
AR reporter gene activity (LB1-LUC) ([9]; LNCaP-abl, 20 uM, 24 hr): inhibits

Reference: patent publication US9173871B2, “Oxazole and thiazole compounds as beta-catenin modulators and uses thereof” (New York University, priority 2008, dated 2015)
